Reference: ChEMBL document CHEMBL5465560, “Selectivity Literature for EUbOPEN Chemogenomic Library” (2024)

Tests used:
[1] = target: Calcium/calmodulin-dependent protein kinase type 1G (Homo sapiens) (UniProt Q96NX5); settings: at 10 µM
[2] = target: T1, Receptor-interacting serine/threonine-protein kinase 1 (Homo sapiens) (UniProt Q13546); experiment: Selectivity interaction (KinomeScan (DiscoverX)) EUB0001049a RIPK1; settings: at 1 µM
T1 sequence (whole entry): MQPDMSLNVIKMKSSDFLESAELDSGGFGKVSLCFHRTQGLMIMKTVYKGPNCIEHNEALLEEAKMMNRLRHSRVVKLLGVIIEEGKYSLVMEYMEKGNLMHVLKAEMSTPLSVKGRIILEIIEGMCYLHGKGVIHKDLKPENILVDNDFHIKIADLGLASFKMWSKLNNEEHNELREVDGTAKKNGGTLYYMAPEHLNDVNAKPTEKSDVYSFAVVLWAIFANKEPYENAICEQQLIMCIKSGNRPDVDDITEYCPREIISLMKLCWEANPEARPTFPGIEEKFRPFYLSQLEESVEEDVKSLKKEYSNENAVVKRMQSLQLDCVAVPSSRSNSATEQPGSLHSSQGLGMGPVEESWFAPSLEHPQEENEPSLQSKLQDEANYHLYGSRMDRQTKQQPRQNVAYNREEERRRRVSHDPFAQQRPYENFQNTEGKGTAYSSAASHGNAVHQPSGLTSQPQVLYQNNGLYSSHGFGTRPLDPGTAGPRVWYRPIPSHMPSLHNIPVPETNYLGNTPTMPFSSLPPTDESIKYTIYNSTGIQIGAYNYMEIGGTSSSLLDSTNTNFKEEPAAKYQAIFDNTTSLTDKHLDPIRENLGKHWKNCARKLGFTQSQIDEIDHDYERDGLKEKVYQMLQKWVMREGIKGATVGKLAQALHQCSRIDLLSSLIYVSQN

[3] = target: T2, Ephrin type-A receptor 6 (Homo sapiens) (UniProt Q9UF33); experiment: Selectivity interaction (Ambit KINOMEscan and KiNATiv profiling in Jurkat cells) EUB0000090b EPHA6; assay type: cell-based; settings: at 1 µM
T2 sequence (whole entry): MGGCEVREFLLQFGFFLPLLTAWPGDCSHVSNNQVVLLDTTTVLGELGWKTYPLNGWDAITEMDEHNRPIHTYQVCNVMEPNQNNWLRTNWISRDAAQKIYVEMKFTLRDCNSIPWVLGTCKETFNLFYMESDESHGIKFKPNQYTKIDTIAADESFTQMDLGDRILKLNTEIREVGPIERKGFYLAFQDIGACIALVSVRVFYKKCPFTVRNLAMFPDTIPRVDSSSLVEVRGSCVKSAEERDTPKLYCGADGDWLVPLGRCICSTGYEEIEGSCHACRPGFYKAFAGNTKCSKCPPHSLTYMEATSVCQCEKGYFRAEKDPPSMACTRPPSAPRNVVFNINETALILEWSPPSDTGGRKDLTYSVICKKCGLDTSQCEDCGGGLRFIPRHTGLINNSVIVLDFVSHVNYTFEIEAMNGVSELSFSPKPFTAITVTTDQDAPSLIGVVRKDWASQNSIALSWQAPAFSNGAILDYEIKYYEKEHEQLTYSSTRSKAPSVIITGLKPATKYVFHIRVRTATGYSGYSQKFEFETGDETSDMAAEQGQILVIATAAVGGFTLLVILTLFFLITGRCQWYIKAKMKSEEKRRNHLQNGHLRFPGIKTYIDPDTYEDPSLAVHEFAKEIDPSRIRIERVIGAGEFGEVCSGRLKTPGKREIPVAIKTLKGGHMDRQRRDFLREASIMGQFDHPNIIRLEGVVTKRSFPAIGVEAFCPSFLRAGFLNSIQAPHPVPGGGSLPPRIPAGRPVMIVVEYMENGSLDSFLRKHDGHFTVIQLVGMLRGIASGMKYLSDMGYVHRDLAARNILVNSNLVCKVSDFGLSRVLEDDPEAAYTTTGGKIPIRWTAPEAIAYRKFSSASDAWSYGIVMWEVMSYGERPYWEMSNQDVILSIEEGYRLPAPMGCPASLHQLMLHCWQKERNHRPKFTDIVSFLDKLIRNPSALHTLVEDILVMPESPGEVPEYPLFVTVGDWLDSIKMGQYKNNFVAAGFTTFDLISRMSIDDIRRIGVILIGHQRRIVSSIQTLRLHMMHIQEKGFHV

[4] = target: Death-associated protein kinase 2 (Homo sapiens) (UniProt Q9UIK4); experiment: Selectivity interaction (KinomeScan (DiscoverX)) EUB0001079a DAPK2; settings: at 1 µM
[5] = target: Proto-oncogene tyrosine-protein kinase Src (Homo sapiens, UniProt P12931); experiment: Selectivity interaction (KinomeScan (DiscoverX)) EUB0000229b SRC; settings: at 10 µM
[6] = target: TGF-beta receptor type-2 (Homo sapiens) (UniProt P37173); experiment: Selectivity interaction (KinomeScan (DiscoverX)) EUB0000092b TGFBR2; settings: at 10 µM
[7] = target: T3, Ephrin type-B receptor 4 (Homo sapiens) (UniProt P54760); settings: at 10 µM
T3 sequence (whole entry): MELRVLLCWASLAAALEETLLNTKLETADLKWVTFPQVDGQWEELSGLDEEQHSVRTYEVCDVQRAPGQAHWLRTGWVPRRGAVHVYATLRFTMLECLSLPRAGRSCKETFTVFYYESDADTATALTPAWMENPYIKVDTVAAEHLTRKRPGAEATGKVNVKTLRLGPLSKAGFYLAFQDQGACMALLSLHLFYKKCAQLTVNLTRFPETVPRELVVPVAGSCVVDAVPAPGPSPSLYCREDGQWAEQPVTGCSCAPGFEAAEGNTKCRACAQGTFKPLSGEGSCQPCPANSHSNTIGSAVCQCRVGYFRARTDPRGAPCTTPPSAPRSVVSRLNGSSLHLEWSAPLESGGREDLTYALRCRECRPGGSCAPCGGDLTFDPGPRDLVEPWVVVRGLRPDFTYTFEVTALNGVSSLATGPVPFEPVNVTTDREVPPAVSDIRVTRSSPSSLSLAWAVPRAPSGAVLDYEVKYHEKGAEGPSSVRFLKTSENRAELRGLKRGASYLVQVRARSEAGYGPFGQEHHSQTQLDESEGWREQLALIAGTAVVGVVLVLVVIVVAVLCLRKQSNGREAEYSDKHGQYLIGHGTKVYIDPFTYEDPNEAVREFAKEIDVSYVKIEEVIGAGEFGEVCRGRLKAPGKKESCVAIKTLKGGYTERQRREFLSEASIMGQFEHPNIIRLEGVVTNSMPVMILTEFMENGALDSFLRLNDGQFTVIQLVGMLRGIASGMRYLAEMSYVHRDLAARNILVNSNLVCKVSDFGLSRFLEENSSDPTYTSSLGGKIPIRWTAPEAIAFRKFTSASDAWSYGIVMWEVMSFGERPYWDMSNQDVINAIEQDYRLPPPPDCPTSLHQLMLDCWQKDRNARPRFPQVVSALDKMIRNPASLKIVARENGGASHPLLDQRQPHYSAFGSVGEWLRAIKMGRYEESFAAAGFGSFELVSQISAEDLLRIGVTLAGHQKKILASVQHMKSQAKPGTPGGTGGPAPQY

Sequence of Proto-oncogene tyrosine-protein kinase Src (P12931 2-536 limits assumed): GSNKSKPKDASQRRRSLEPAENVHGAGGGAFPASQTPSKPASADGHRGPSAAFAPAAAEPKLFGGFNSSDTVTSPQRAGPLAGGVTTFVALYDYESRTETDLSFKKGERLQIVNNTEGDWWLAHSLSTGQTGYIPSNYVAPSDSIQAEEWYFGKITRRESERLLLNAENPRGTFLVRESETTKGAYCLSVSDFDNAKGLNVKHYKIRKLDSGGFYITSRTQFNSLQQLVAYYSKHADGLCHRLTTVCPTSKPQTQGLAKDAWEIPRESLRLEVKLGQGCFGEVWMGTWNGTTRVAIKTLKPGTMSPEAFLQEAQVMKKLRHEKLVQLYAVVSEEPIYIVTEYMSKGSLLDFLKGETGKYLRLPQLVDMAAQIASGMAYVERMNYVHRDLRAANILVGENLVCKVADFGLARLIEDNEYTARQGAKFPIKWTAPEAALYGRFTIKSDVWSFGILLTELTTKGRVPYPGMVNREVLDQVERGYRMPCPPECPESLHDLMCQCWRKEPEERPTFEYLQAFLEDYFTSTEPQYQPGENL
Sequence of Calcium/calmodulin-dependent protein kinase type 1G (Homo sapiens) (Q96NX5 whole entry): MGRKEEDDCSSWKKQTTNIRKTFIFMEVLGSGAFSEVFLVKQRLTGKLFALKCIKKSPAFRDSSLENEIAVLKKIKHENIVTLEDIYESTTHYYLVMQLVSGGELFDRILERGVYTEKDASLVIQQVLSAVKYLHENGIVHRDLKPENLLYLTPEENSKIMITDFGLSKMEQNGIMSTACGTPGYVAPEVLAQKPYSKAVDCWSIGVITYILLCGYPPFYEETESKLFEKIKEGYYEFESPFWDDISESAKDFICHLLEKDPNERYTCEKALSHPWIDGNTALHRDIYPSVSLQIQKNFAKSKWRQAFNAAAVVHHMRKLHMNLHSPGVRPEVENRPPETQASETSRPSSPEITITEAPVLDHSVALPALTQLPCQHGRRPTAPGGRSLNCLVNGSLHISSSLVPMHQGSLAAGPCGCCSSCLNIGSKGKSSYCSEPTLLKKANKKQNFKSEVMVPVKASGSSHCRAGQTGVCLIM
Sequence of TGF-beta receptor type-2 (Homo sapiens) (P37173 whole entry): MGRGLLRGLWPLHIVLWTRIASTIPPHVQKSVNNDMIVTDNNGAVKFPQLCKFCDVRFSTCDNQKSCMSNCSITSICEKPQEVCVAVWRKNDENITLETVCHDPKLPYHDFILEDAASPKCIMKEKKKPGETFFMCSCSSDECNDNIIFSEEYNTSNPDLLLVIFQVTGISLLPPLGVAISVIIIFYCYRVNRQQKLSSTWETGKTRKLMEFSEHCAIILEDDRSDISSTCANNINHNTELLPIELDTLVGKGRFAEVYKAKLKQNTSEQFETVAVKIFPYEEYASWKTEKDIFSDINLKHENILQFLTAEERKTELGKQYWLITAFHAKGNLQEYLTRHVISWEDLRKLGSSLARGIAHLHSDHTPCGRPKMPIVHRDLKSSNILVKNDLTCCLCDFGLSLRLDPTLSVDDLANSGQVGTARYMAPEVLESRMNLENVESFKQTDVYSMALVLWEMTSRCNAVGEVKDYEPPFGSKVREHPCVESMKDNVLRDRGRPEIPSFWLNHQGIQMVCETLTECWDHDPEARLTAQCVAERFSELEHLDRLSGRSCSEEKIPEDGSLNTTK
Sequence of Death-associated protein kinase 2 (Homo sapiens) (Q9UIK4 whole entry, looked up): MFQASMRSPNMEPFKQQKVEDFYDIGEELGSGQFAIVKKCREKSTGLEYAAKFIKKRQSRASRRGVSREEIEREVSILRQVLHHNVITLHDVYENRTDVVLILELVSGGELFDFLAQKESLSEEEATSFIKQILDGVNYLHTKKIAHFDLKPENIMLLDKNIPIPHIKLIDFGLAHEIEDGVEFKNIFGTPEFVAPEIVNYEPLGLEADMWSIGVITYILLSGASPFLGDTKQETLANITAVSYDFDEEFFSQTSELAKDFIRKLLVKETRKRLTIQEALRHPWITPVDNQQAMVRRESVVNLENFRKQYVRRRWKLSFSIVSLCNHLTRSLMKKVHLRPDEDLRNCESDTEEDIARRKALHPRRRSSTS

In the case of COCC(=O)NC/C=C/c1ccc2ncnc(Nc3ccc(Oc4ccc(C)nc4)c(C)c3)c2c1 [CP-724714], the % of control [1] is reported as 96%.
Work on COc1cc(Nc2nc(C)cc(-c3cnn4nc(OC)ccc34)n2)cc(C(F)(F)F)c1 yielded a % of control [2] of 93%.
CN(C)C/C=C/C(=O)Nc1ccc(C(=O)N2CCCC(Nc3ncc(Cl)c(-c4c[nH]c5ccccc45)n3)C2)cc1 (configuration not stated) gave a % of control [3] of 93%.
Nc1cnc(N2CCc3cc(S(=O)(=O)Nc4c(F)cc(Cl)cc4F)cc(N4CCCC4=O)c32)nc1 [TP-020n] gave a % of control [4] of 91%.
COc1cc(N(C)c2ccnc3ccc(C(F)(F)F)cc23)cc(OC)c1OC was tested, and the % binding [5] was 100%.
CCC(=O)N1CCN(c2ccc(-n3c(=O)ccc4cnc5ccc(-c6cnc7ccccc7c6)cc5c43)cc2C(F)(F)F)CC1 showed a % of control [6] of 77%.
Work on Cc1cc([C@@H](C)Nc2ccccc2C(=O)O)c2nc(N3CCOCC3)cc(=O)n2c1 [AZD-6482] yielded a % of control [7] of 96%.
